Literature values in patent US8389574B2, “Method useful for the prevention of type 2 diabetes and its complications in pre-diabetic patients with insulin resistance” (Sigma-Tau Industrie Farmaceutiche Riunite S.p.A., priority 2007, dated 2013).

Conditions: DPP participants at high risk for IGT and type 2 diabetes; over 3 years

CN(C)C(=N)N=C(N)N [metformin]
Reduction of risk of getting type 2 diabetes: 31%
